In US9023844B2, “Heterocyclylpyri (mi) dinylpyrazole as fungicidals” (Bayer Intellectual Property GmbH, priority 2011, dated 2015):
Like-named read-outs stand apart in the source and are kept apart here.

Columns and labels:
[1] = test system: DON/Acetyl-DON production by Fusarium graminearum; test: microbe, parasite or virus in culture; format: cell-based; settings: at 50 μM
Alternaria brassicae = settings: in vivo
Botrytis cinerea = test: Example N: in vivo preventive test on Botrytis cinerea (grey mould); settings: dose of 500 ppm; gherkin plants; grading 4-5 days after contamination
Description: The active ingredients tested are prepared by homogenization in a mixture of acetone/tween/DMSO and then diluted with water to obtain the desired active material.
Gherkin plants (“Vert petit de Paris” variety), sown in starter cups on a 50/50 peat soil-pozzolana substrate and grown at 24° C., are treated at the Z11 cotyledon stage by spraying with the active ingredient prepared as described above. Plants, used as controls, are treated with the mixture of acetone/tween/DMSO/water not containing the active material.
After 24 hours, the plants are contaminated by spraying the cotyledons with an aqueous suspension of cryopreserved Botrytis cinerea spores (50 000 spores per ml). The spores are suspended in a nutrient solution composed of 10 g/L of PDB, 50 g/L of D-Fructose, 2 g/L of NH4NO3 and 1 g/L of KH2PO4. The contaminated gherkin plants are incubated at 17° C. and at 80% relative humidity.
Grading (% of efficacy) is carried out 4-5 days after the contamination, in comparison with the control plants.

[2] = Determination of log P values by HPLC on a reverse phase column (C18), EEC-Directive 79/831 Annex V.A8 (Methods A, B, C); format: physicochemical; settings: for chromatographic logP: reverse phase C18 HPLC column
In short: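 LogP was determined by C18 reverse-phase HPLC/UPLC with acetonitrile/water eluents containing formic acid. Method A used a 10–95% acetonitrile gradient over 4.25 min at 55 °C and 2.0 mL/min. Method B used 5–95% over 1.70 min at 55 °C and 2.0 mL/min, and Method C used 10–95% over 3.25 min at 40 °C and 0.8 mL/min, with MS detection.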

Uromyces appendiculatus [3] = settings: in vivo
Pyrenophora teres [4] = settings: in vivo
Phytophthora infestans [5] = format: in vivo
Plasmopara viticola = test: Example H: Plasmopara test (grapevines) / preventive; format: in vivo
Venturia inaequalis = test: Example I: Venturia test (apples) / preventive; settings: 100 ppm of active ingredient, preventive spray, evaluated 10 days after inoculation
Description: After the spray coating has dried on, the plants are inoculated with an aqueous conidia suspension of the causal agent of apple scab (Venturia inaequalis) and then remain for 1 day in an incubation cabinet at approximately 20° C. and a relative atmospheric humidity of 100%.
The plants are then placed in a greenhouse at approximately 21° C. and a relative atmospheric humidity of approximately 90%.
The test is evaluated 10 days after the inoculation.

Fusarium graminearum [6] = test: microbe, parasite or virus in culture; format: cell-based; settings: for Growth inhibition of Fusarium graminearum in %: at 50 μM
Puccinia recondita [7] = settings: in vivo
Sphaerotheca fuliginea [8] = settings: in vivo
Pyricularia oryzae [9] = format: in vivo
Sphaerotheca fuliginea [10] = test: Example A: Sphaerotheca test (cucumber) / preventive; format: in vivo
[11] = test system: Fusarium nivale (var. majus); test: Example K: Fusarium nivale (var. majus) test (wheat) / preventive; format: in vivo; settings: 500 ppm of active ingredient, preventive spray, evaluated 5 days after inoculation
Description: After the spray coating has been dried, the plants are slightly injured by using a sandblast and afterwards they are sprayed with a conidia suspension of Fusarium nivale (var. majus).
The test is evaluated 5 days after the inoculation.

Fusarium graminearum [12] = format: in vivo
Uromyces appendiculatus [13] = test: Example B: Uromyces test (beans) / preventive; format: in vivo
Puccinia recondita [14] = test: Example E: Puccinia test (wheat) / preventive; format: in vivo
Leptosphaeria nodorum = test: Example C: Leptosphaeria test (wheat) / preventive; format: in vivo
Septoria tritici = test: Example J: Septoria tritici test (wheat) / preventive; format: in vivo
Pyrenophora teres [15] = test: Example D: Pyrenophora test (barley) / preventive; format: in vivo
Pyricularia oryzae [16] = format: in vivo; remark: listed apart in the source
Phytophthora infestans [17] = settings: in vivo
[18] = Method A: HPLC, reverse phase C18, acetonitrile (0.1% formic acid)/water (0.09% formic acid) gradient
[19] = Method B (HPLC, reverse phase C18)
[20] = 500 ppm of active ingredient, wheat, preventive spray, evaluated 7-9 days after inoculation

Compound	Inhibition of DON/AcDON in % [1] [%]	protection (% of efficacy) (Botrytis cinerea) [%]	LogP [2, 18]	protection (% of efficacy) (Pyrenophora teres [4]) [%]	efficacy (Phytophthora infestans [5]; in vivo) [%]	efficacy (Plasmopara viticola; in vivo) [%]	efficacy (Venturia inaequalis) [%]	Growth inhibition of Fusarium graminearum in % (Fusarium graminearum [6]) [%]	protection (% of efficacy) (Pyricularia oryzae [9]; in vivo) [%]	efficacy (Sphaerotheca fuliginea [10]; in vivo) [%]	efficacy [11] [%]	LogP [2, 19]	efficacy (Fusarium graminearum [12]; in vivo) [%]	efficacy (Uromyces appendiculatus [13]; in vivo) [%]	efficacy (Puccinia recondita [14]; in vivo) [%]	efficacy (Leptosphaeria nodorum; in vivo) [%]	efficacy (Septoria tritici; in vivo) [%]	efficacy (Pyrenophora teres [15]; in vivo) [%]	efficacy (Pyricularia oryzae [16]; in vivo) [%]	other results
CCC(=O)Nc1cc(-c2c(-c3ccc(F)cc3)nn3ccoc23)ccn1 [Example 105]	99	100	1.61	81	95	100	93	83	–	–	–	–	–	–	–	–	–	–	–	protection (% of efficacy) (Alternaria brassicae): 93%; protection (% of efficacy) (Uromyces appendiculatus [3]): 96%; protection (% of efficacy) (Puccinia recondita [7]): 75%
CCC(=O)Nc1cc(-c2c(-c3ccccc3)nn3ccoc23)ccn1 [Example 106]	95	100	1.46	–	–	–	–	65	–	–	–	–	–	–	–	–	–	–	–	protection (% of efficacy) (Alternaria brassicae): 79%; protection (% of efficacy) (Uromyces appendiculatus [3]): 81%; protection (% of efficacy) (Sphaerotheca fuliginea [8]): 98%
CCC(=O)Nc1cc(-c2c(-c3ccc(F)cc3)nn3c(CC)coc23)ccn1 [Example 104]	–	85	2.23	–	93	95	93	–	75	–	–	–	–	–	–	–	–	–	–	protection (% of efficacy) (Alternaria brassicae): 79%; protection (% of efficacy) (Uromyces appendiculatus [3]): 88%
CCC(C)C(=O)Nc1cc(-c2c(-c3ccccc3)nn3c2OCCC3)ccn1 (stereo not drawn) [Example 10]	100	–	–	–	95	94	99	95	–	100	100	1.63	90	94	100	80	86	80	94	–
CCC(=O)Nc1cc(-c2c(-c3ccc(F)cc3)nn3c2O[C@H](C)C[C@@H]3C)ccn1 [Example 73]	100	–	1.74	94	–	–	–	83	90	–	–	–	–	–	–	–	–	–	–	protection (% of efficacy) (Uromyces appendiculatus [3]): 86%; protection (% of efficacy) (Sphaerotheca fuliginea [8]): 100%; protection (% of efficacy) (Phytophthora infestans [17]): 85%; protection (% of efficacy) (Puccinia recondita [7]): 88%
CCC(=O)N(C(=O)CC)c1cc(-c2c(-c3ccc(F)cc3)nn3c2OCCC3)ccn1 [Example 53]	100	–	2.74	–	95	98	100	79	–	95	100	–	100	74	95	90	75	100	90	–
O=C(Nc1cc(-c2c(-c3ccc(F)cc3)nn3c2OCCC3)ccn1)C1C2CCCCC21 (stereo not drawn) [Example 65]	–	–	–	71	–	–	–	–	80	–	–	2.13	–	–	–	–	–	–	–	–
C[Si]1(C)COc2c(-c3ccnc(N)c3)c(-c3cccs3)nn2C1 [Example 89, 4-[3,3-dimethyl-7-(2-thienyl)-3,4-dihydro-2H-pyrazolo[5,1-b][1,3,5]oxazasilin-8-yl]pyridin-2-amine]	–	–	–	–	–	–	–	–	–	–	–	–	–	–	–	–	–	–	–	chromatographic logP ([2]; Method C (HPLC, reverse phase C18), read-out: LogP): 1.55; chromatographic logP ([2]; pH 2.3, intermediates of formula [II], HPLC, reverse phase C18, read-out: LogP (pH 2.3)): 1.55; protection (% of efficacy) (Pyricularia oryzae [9]; dose of 500 ppm, rice plants, grading 6 days after contamination): 75%
O=C(Nc1cc(-c2c(-c3ccc(F)cc3)nn3c2OCCC3)ccn1)C1SCCS1 [Example 69]	96	100	–	79	–	–	–	83	100	–	–	2.1	–	–	–	–	–	–	–	protection (% of efficacy) (Sphaerotheca fuliginea [8]): 100%; protection (% of efficacy) (Puccinia recondita [7]): 81%
CCOC(=O)Nc1cc(-c2c(-c3ccccc3)nn3c2OCCC3)ccn1 [Example 9]	100	–	–	–	95	94	100	100	–	95	93	1.51	100	94	100	95	80	100	94	–
O=C(Nc1cc(-c2c(-c3ccc(F)cc3)nn3c2OCCC3)ccn1)C1CC1 [Example 4, N-{4-[2-(4-fluorophenyl)-6,7-dihydro-5H-pyrazolo[5,1-b][1,3]oxazin-3-yl]pyridin-2-yl}cyclo-propanecarboxamide]	–	–	–	–	–	–	95	–	–	–	100	–	–	–	–	–	–	–	–	inhibition at 50 µM ([1]; Fusarium graminearum, read-out: Inhibition of DON/AcDON in %): 99%; efficacy (Sphaerotheca fuliginea [10]; 500 ppm of active ingredient, cucumber, preventive spray, evaluated 7 days after inoculation): 100%; chromatographic logP ([2]; Method B (HPLC, reverse phase C18), read-out: LogP): 1.47; chromatographic logP ([2]; pH 2.7, values in the synthesis examples, HPLC, reverse phase C18, read-out: log P (pH 2.7)): 1.39; efficacy (Fusarium graminearum [12]; 500 ppm of active ingredient, barley, preventive spray, evaluated 5 days after inoculation): 100%; efficacy (Uromyces appendiculatus [13]; 500 ppm of active ingredient, beans, preventive spray, evaluated 6-8 days after inoculation): 90%; efficacy (Phytophthora infestans [5]; 100 ppm of active ingredient, tomatoes, preventive spray, evaluated 3 days after inoculation): 94%; efficacy (Puccinia recondita [14]; [20]): 100%; efficacy (Plasmopara viticola; 100 ppm of active ingredient, grapevines, preventive spray, evaluated 6 days after inoculation): 100%; efficacy (Leptosphaeria nodorum; [20]): 90%; inhibition at 50 µM (Fusarium graminearum [6]; Fusarium graminearum, read-out: Growth inhibition of Fusarium graminearum in %): 69%; efficacy (Septoria tritici; 500 ppm of active ingredient, wheat, preventive spray, evaluated 21 days after inoculation): 80%; efficacy (Pyrenophora teres [15]; 500 ppm of active ingredient, barley, preventive spray, evaluated 7-9 days after inoculation): 100%; efficacy (Pyricularia oryzae [16]; 500 ppm of active ingredient, rice, preventive spray, evaluated 7 days after inoculation): 100%
CCC(=O)Nc1cc(-c2c(-c3ccc(F)cc3)nn3c(C)coc23)ccn1 [Example 103]	–	80	1.86	–	–	–	–	–	–	–	–	–	–	–	–	–	–	–	–	protection (% of efficacy) (Alternaria brassicae): 93%
O=C(Nc1cc(-c2c(-c3ccc(F)cc3)nn3c2OCCC3)ccn1)C1CCOCC1 [Example 28]	99	–	–	–	95	92	98	94	–	100	100	1.37	86	94	100	95	88	95	94	–
CCC(=O)Nc1cc(-c2c(-c3ccc(F)cc3)nn3c2OCC(F)(F)C3)ccn1 [Example 74]	–	–	1.9	81	–	–	–	–	80	–	–	–	–	–	–	–	–	–	–	protection (% of efficacy) (Sphaerotheca fuliginea [8]): 94%; protection (% of efficacy) (Phytophthora infestans [17]): 79%; protection (% of efficacy) (Puccinia recondita [7]): 88%
CCC(=O)N(C(=O)CC)c1cc(-c2c(-c3ccc(F)cc3F)nn3c2OCCC3)ccn1 [Example 95]	97	–	2.68	–	–	–	–	77	83	–	–	–	–	–	–	–	–	–	–	–
CCC(=O)Nc1cc(-c2c(-c3ccc(F)cc3)nn3c2OCCC3)ccn1 [Example 5]	100	–	1.46	–	95	100	98	62	–	95	100	–	100	93	100	90	92	95	100	–
